# Results from patent publication US7868015B2, “Phosphodiesesterase 4 inhibitors for the treatment of a cognitive deficit” (Cold Spring Harbor Laboratory, priority 2000, dated 2011).
# Entries after “also recorded” stand apart in the source; their conditions may differ.
# Assays:
# [1] = test system: somatostatin, an endogenous cAMP-responsive gene, in human neuroblastoma cells; test: Real-time PCR of somatostatin expression, forskolin-stimulated human neuroblastoma cells; format: cell-based; settings: for effect on expression of CRE-dependent endogenous gene somatostatin: FIG. 2, in words; for increase in forskolin-induced expression of somatostatin: real-time PCR, ΔCt above vehicle alone (FIG. 2B)
# Text: FIG. 2B is a bar graph representation depicting results showing that the PDE4 inhibitors rolipram and HT0712 enhance forskolin-induced gene expression in human neuroblastoma cells. Real-time PCR was used to quantify expression of somatostatin, an endogenous cAMP-responsive gene. Expression levels induced by forskolin or by forskolin+drug are quantified as differences in threshold cycle number (ΔCt) above vehicle alone control groups.
# CBP^+/− mutant mice = test: Object recognition task, long-term memory in CBP+/− mutant mice; format: in vivo; settings: for 24 hour memory retention versus vehicle-alone group: 3.5 minute training (FIG. 6); for memory retention, drug-treated CBP+/− mutants versus drug-treated wildtype mice / 24 hour memory retention (Discrimination Index) versus vehicle-injected mutants: 0.1 mg/kg i.p. 20 minutes before 15 minute training, tested 24 hours later (FIG. 4); for 24 hour memory retention (Discrimination Index) versus vehicle-injected mutants: p<0.05
# Text: (§1) Generation of CBP^+/- mice was described by Oike et al. (Human Molecular Genetics, 8:387-396 (1999)). […] For these studies, animals were generated by crossing CBP^+/- mice to C57BL/6 females (Jackson laboratory). The mice were genotyped with a PCR protocol as described previously (Oike, Y. et al., Human Molecular Genetics, 8:387-396 (1999)). Age-(12 to 14 weeks old by the time of handling) and gender-matched mutant mice and wildtype littermates were used for all experiments. Mice were handled for 3-5 minutes for 5 days. […] The first set was used for experiments summarized in FIGS. 3 and 4 (n=10 per genotype). The second set was used for the experiment summarized in FIG. 5 (wildtype mice, n=20). For each experiment, the same set of animals was used repeatedly with different (new) sets of objects for each repetition. […] (iii) each experimental condition was replicated 2-4 independent times, and replicate days were added to generate final number of subjects. Five-to-eight sessions were performed on each set of mice. Each mouse was trained and tested no more than once per week and with a one-week interval between testing. In experiments with drug-injections (see below), vehicle-injected mice and high/low-dose-injected mice, were counterbalanced. In each experiment, the experimenter was unaware (blind) to the treatment of the subjects during training and testing. […] Mice were presented with two objects, one of which was used during training, and thus was 'familiar' and the other of which was novel (e.g. a small pyramid-shape object). The test objects were divided into ten sets of two “training” plus on “testing” objects, and a new set of objects was used for each training session. After each experimental subject, the apparatus and the objects were cleaned with 90% ethanol, dried and ventilated for a few minutes. […] In addition, vehicle- and drug-injected mice were counterbalanced from experiment to experiment. Such design allowed at least two weeks wash-out time between repeated usages of high doses. […] The experiments were videotaped via an overhead video camera system. Types were reviewed by a blinded observer and the following behavioral parameters were determined: time of exploration of an each object; the total time of exploration of the objects; number of approaches to the objects; and time (latency) to first approach to an object. The discrimination index was determined as described previously (Ennaceur, A. & Aggleton, J. P., Behav. Brain Res., 88:181-193 (1997)). The data were analyzed by Student's unpaired t test using statistical software package ([…] Institute, Inc). All values in the text and figure legends are expressed as mean±SEM.
# [2] = Half-life (wash-out consideration); settings: mouse, in vivo
# Procedure: HT0712 was administered intraperitoneally (i.p.) at doses: 0.001 mg/kg; 0.005 mg/kg; 0.01 mg/kg; 0.05 mg/kg; 0.1 mg/kg, 0.15 mg/kg and 0.2 mg/kg. Rolipram (Sigma) was administered i.p. at dose 0.1 mg/kg. Drug compounds were injected with one week interval to allow sufficient wash-out time (the half-life for HT0712 and Rolipram <3 hours). In addition, vehicle- and drug-injected mice were counterbalanced from experiment to experiment. Such design allowed at least two weeks wash-out time between repeated usages of high doses.
# normal, young adult mice = settings: delivered directly to the hippocampus, intraventricularly or intraperitoneally (Scott et al. 2002); cited from earlier work
# [3] = test system: CRE-luciferase reporter gene in human neuroblastoma cells; test: CRE-luciferase reporter gene assay, forskolin-stimulated human neuroblastoma cells; format: cell-based; settings: for effect on CRE-luciferase expression: FIG. 2, in words; for increase of forskolin-induced CRE-luciferase expression above forskolin alone: drug for two hours before suboptimal dose of forskolin, assayed 4 hours after forskolin stimulation (FIG. 2A)
# Text: FIG. 2A is a bar graph representation depicting results showing that the PDE4 inhibitors rolipram and HT0712 enhance forskolin-induced gene expression in human neuroblastoma cells. Relative light units (RLU) emitted from luciferase were quantified in human neuroblastoma cells stably transfected with a CRE-luciferase reporter gene and exposed to vehicle alone or drug (HT0712 or rolipram) for two hours before stimulation by a suboptimal dose of forskolin.
# A high-throughput drug screen was accomplished using human neuroblastoma cells, which were stably transfected with a luciferase reporter gene driven by a CRE (cAMP response element) promoter (a drug screen for enhancers of CREB function) (Scott, R. et al., J. Mol. Neurosci., 19:171-177 (2002)). Cells were exposed to drug for two hours and then stimulated with a suboptimal dose of forskolin for another four hours. […] Among the dozens of confirmed hits for several molecular targets identified from this screen, inhibitors of PDE4 were numerous.
# wildtype mice = test: Object recognition task, long-term memory in wildtype mice; format: in vivo; settings: for 24 hour memory retention versus vehicle-alone group: 3.5 minute training (FIG. 6)
# Text: as §1
# aged rats = settings: Barad et al. 1998; cited from earlier work
# [4] = i.p., 3.5 minute training, 24-hour memory (FIG. 6)
smiles,measurement,setting,value
"COc1ccc([C@H]2CNC(=O)[C@H](Cc3cccc(C)c3)C2)cc1OC1CCCC1 [HT0712, (3S,5S)-5-(3-cyclopentyloxy-4-methoxy-phenyl)-3-(3-methyl-benzyl)-piperidin-2-one]",effect on expression of CRE-dependent endogenous gene somatostatin,[1],robust effects
same,increase in forskolin-induced expression of somatostatin,[1],4.6 fold
same,24 hour memory retention versus vehicle-alone group,"CBP^+/− mutant mice; 0.05 mg/kg i.p., p=0.79",did not; also recorded: failed to enhance memory
same,"memory retention, drug-treated CBP+/− mutants versus drug-treated wildtype mice",CBP^+/− mutant mice,did not differ significantly
same,24 hour memory retention (Discrimination Index) versus vehicle-injected mutants,CBP^+/− mutant mice,restored 24-hour memory; also recorded: significantly higher
same,24 hour memory retention versus vehicle-alone group,"CBP^+/− mutant mice; 0.10 mg/kg i.p., p<0.0001",higher
same,24 hour memory retention versus vehicle-alone group,"CBP^+/− mutant mice; 0.15 mg/kg i.p., p<0.0001",higher
same,24 hour memory retention versus vehicle-alone group,"CBP^+/− mutant mice; 0.2 mg/kg i.p., p<0.0001",higher
same,dose at which memory enhancement was first seen (initial effective dose),CBP^+/− mutant mice; [4],0.10 mg/kg
same,peak effective dose,CBP^+/− mutant mice; [4],0.15 mg/kg
same,half-life,[2],< 3 h
same,long-term memory formation after contextual fear conditioning,"normal, young adult mice",enhanced
same,effect on CRE-luciferase expression,[3],robust effects
same,increase of forskolin-induced CRE-luciferase expression above forskolin alone,[3],1.9 fold
same,24 hour memory retention versus vehicle alone,"wildtype mice; 0.05 mg/kg i.p. 20 min before 3.5 minute training (FIG. 5), p<0.05",significantly increased; also recorded: significantly higher
same,24 hour memory retention versus vehicle-alone group,"wildtype mice; 0.05 mg/kg i.p., p<0.005",significant enhancement; also recorded: higher
same,24 hour memory retention versus vehicle alone,"wildtype mice; 0.10 mg/kg i.p. 20 min before 3.5 minute training (FIG. 5), p<0.0001",significantly increased; also recorded: significantly higher
same,24 hour memory retention versus vehicle-alone group,"wildtype mice; 0.10 mg/kg i.p., p<0.0001",higher
same,24 hour memory retention versus vehicle alone,"wildtype mice; 0.15 mg/kg i.p. 20 min before 3.5 minute training (FIG. 5), p<0.001",significantly increased; also recorded: significantly higher
same,24 hour memory retention versus vehicle-alone group,"wildtype mice; 0.15 mg/kg i.p., p<0.005",higher
same,24 hour memory retention versus vehicle-alone group,"wildtype mice; 0.2 mg/kg i.p., p<0.005",higher
same,24 hour memory retention versus vehicle alone,"wildtype mice; 0.50 mg/kg i.p., 3.5 minute training (FIG. 5)",failed to produce any memory enhancement
same,24 hour memory retention versus vehicle alone,"wildtype mice; below 0.05 mg/kg i.p., 3.5 minute training (FIG. 5)",failed to produce any memory enhancement
same,peak effective dose,wildtype mice; [4],0.10 mg/kg
"COc1ccc(C2CNC(=O)C2)cc1OC1CCCC1 (stereo not drawn) [rolipram, reference compound]",effect on expression of CRE-dependent endogenous gene somatostatin,[1],robust effects
same,increase in forskolin-induced expression of somatostatin,[1],2.3 fold
same,"memory retention, drug-treated CBP+/− mutants versus drug-treated wildtype mice",CBP^+/− mutant mice,did not differ significantly
same,24 hour memory retention (Discrimination Index) versus vehicle-injected mutants,CBP^+/− mutant mice,restored 24-hour memory; also recorded: significantly higher
same,half-life,[2],< 3 h
same,age-dependent loss of hippocampal-dependent memory and cellular long-term potentiation,aged rats,ameliorates
same,long-term memory formation after contextual fear conditioning,"normal, young adult mice",enhanced
same,effect on CRE-luciferase expression,[3],robust effects
same,increase of forskolin-induced CRE-luciferase expression above forskolin alone,[3],1.9 fold
